Source: patent US5466675A, “Immunological activity of rhamnolipids” (priority 1992, dated 1995)
Like-named read-outs stand apart in the source and are kept apart here.

Tests used:
papain = papain (Carica papaya, UniProt P00784); assay: enzyme inhibition, papain; format: biochemical
Protocol: Rhamnolipid (II) was tested in vitro against a wide array of enzymes.
All enzyme assays were done spectrophotometrically by computer linked automatic microplate reader (Labsystem Multiskan) and Diode Array spectrophotometer (Perkin Elmer).

[1] = test system: A431 human epidermal cells; assay: A431 cell DNA synthesis ([3H] thymidine incorporation); format: cell-based; conditions: for inhibition of DNA synthesis: absence of serum growth factors; for activity at 1 µg/mL / activity at 10 µg/mL / activity at 100 µg/mL: Homo sapiens, read-out: DNA synthesis, % placebo
Protocol: A431 cells were cultured for 24 h in microtitter platesm, with serum free medium or in the presence of serum with rhamnolipid. Then, [^3 H] thymidine was added and cells were harvested after 48 h; [^3 H] incorporated into DNA was determined.

in vitro = conditions: monkey, vero cells
[2] = target: Dopamine D1 (human recombinant) (Homo sapiens, UniProt P21728); assay: [3H] SCH23390 dopamine D1 receptor inhibition; format: binding; conditions: 0.5% DMSO
[3] = range-finding study phase (single intravenous dose); conditions: mouse, in vivo, iv
mice C57B1/6 [4] = assay: as above
Psoriasis = assay: clinical treatment of psoriasis; format: in vivo, human
Protocol: 17 patients, 11 men and 6 women, were treated with rhamnolipid (II). Among these, 12 patients were suffering from Psoriasis, 2 from Neurodermitis, 1 from Lichen ruber planus, 1 from Serborhoic dermatitis and one from Dermatitis circumscripta unilocularis eczematoides.
All patients were treated by application of a cream containing rhamnolipid II over selected psoriatic localities, 2 times a day for 21 days.
The remaining psoriatic localities on the body were treated with local corticosteroid.
The treatment and the follow-up of the patients was a "double blind" experiment.
The therapeutic efficacy was monitored by PASI-index.
After observing positive results with the first six psoriatic patients, who were treated and monitored until the end of the year, rhamnolipid was applied on larger psoriatic surfaces (up to a half of the patient's body where psoriatic lesions existed). Also, occlusions were used (up to 48 hours) and the duration and usage of occlusions was prolonged up to 35 days.
Patients were seen 3, 6 and 9 months after treatment and they were instructed not to apply any other local preparations at the same localities where rhamnolipic II was applied.

[5] = test system: measles edmonston A virus; assay: effect on viruses, measles edmonston A; format: cell-based; conditions: concentrations ≤100 ug/ml
Candida albicans = assay: minimum inhibitory concentration, Candida albicans; format: cell-based; conditions: in tested medium
Text: The Minimum inhibitory concentration (MIC) of Rhamnolipid II for Candida albicans, Escherichia coli, Staphylococcus aureus and Pseudomonas aeruginosa was >0.5% in tested medium.

[6] = test system: B-cells isolated from mouse spleen; assay: B-lymphocyte proliferation + LPS; format: cell-based
Protocol: Procedure: B-cells were isolated from mouse spleen using convnetional procedures, and suspended in DMEM. 10^6 cells/ml were incubated overnight at 37° C. in the presence of 10 ug/ml lipopolysaccharide (LPS) to assess stimulation (positive score, related to 1 ng/ml rat interleukin-5) or suppression (negative score, related to control) of cell proliferation. The test substance was evaluated under these conditions at 10, 1, 0.1, and 0.01 uM. After overnight incubation, 2 uCi [^3 H] thymidine was added to each well. Cells were harvested after an additional 48 hour incubation, and thymidine incorporation assessed by liquid scintillation counting.

mice C57B1/6 [7] = assay: range-finding study phase (five doses per five days, one dose per day)
[8] = test system: T-cells isolated from mouse thymus; assay: T-lymphocyte proliferation; format: cell-based
Protocol: Procedure: T-cells were isolated from mouse thymus using conventional procedures, and suspended in DMEM. 5×10^6 cells/ml were incubated overnight at 37° C. to assess stimulation (positive score, related to 3 ug/ml Concanavalin A) or suppression (negative score, related to blank control) of cell proliferation. Test substance was evaluated under these conditions at 10, 1, 0.1, 0.01, 0,001 uM. After overnight incubation, 2 uCi [^3 H] thymidine was added to each well. Cells were harvested after an additional 48 hour incubation, and thymidine incorporation assessed by liquid scintillation counting.

blood count in mouse = conditions: in vivo
Text: Activity of Di-rhamnolipid on Blood Count in Mouse
Blood count after application of di-rhamnolipid

rat platelet rich plasma = assay: collagen induced platelet aggregation; format: cell-based; conditions: 0.1 mg/ml
Protocol: Collagen induced platelet aggregation in rat platelet rich plasma was not affected by rhamnolipid (II) at 0.1 mg/ml.

[9] = test system: vesicular stomatitis virus; format: cell-based; conditions: concentrations ≤100 ug/ml
[10] = test system: tissue plasminogen activator (t-PA) released by human umbilical cord venous endothelial cells; assay: tissue plasminogen activator release; format: cell-based
[11] = fourth day after application, IV
[12] = five doses per five days, intraperitoneal

Sequence of Dopamine D1 (human recombinant) (P21728 whole entry): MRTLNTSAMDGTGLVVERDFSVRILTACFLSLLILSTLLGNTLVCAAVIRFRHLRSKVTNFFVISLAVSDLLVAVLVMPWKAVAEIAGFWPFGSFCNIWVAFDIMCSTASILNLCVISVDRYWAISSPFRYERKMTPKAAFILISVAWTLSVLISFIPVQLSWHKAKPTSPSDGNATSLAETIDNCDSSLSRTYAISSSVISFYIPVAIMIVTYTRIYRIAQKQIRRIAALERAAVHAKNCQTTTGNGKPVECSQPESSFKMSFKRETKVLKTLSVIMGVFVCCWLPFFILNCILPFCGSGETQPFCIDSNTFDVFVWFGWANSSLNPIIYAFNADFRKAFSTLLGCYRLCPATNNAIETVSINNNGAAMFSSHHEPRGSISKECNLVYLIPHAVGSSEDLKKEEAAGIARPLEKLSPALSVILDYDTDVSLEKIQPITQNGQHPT
Sequence of papain (P00784 134-345): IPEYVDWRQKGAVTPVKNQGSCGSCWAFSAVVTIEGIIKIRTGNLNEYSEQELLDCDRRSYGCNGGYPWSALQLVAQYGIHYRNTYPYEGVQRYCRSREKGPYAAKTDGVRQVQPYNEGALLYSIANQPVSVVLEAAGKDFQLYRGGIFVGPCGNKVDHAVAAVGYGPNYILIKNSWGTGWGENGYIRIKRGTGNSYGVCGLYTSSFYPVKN

Structure (SMILES): CCCCCCCC(CC(=O)O)OC(=O)CC(CCCCCCC)O[C@@H]1O[C@@H](C)[C@H](O)[C@@H](O)[C@H]1O[C@@H]1O[C@@H](C)[C@H](O)[C@@H](O)[C@H]1O (stereo partly drawn) [Rhamnolipid (II), (alpha-L-rhamnopyranosyl-(1,2)alpha-L-rhamnopyranosyl)-3-hydroxydecanoyl-3-hydroxydecanoic acid]
- effect on enzyme (papain): no effect
- inhibition of DNA synthesis ([1]; 0.1 mg/ml): completely inhibited
- inhibition of DNA synthesis ([1]; 0.1 mg/ml, listed as rhamnolipid II): total inhibition
- DNA synthesis [3H] Thy inc. ([1]; 10 (v/v) % FCS, 0.001 mg/ml): 35400 +/- 2786 dpm
- DNA synthesis [3H] Thy inc. ([1]; 10 (v/v) % FCS, 0.01 mg/ml): 31273 +/- 2028 dpm
- DNA synthesis [3H] Thy inc. ([1]; 10 (v/v) % FCS, 0.1 mg/ml): 37055 +/- 1881 dpm
- activity at 1 µg/mL ([1]; A-431, 10 (v/v) % FCS, 0.001 mg/ml): 106 ± 8%
- activity at 10 µg/mL ([1]; A-431, 10 (v/v) % FCS, 0.01 mg/ml): 94 ± 6%
- activity at 100 µg/mL ([1]; A-431, 10 (v/v) % FCS, 0.1 mg/ml): 111 ± 6%
- activity at 1 µg/mL ([1]; A-431, serum free medium, 0.001 mg/ml): 91 ± 32%
- activity at 10 µg/mL ([1]; A-431, serum free medium, 0.01 mg/ml): 64 ± 19%
- activity at 100 µg/mL ([1]; A-431, serum free medium, 0.1 mg/ml): 2 ± 2%
- DNA synthesis [3H] Thy inc. ([1]; serum free medium, 0.001 mg/ml): 6935 +/- 2432 dpm
- DNA synthesis [3H] Thy inc. ([1]; serum free medium, 0.01 mg/ml): 4885 +/- 1480 dpm
- DNA synthesis [3H] Thy inc. ([1]; serum free medium, 0.1 mg/ml): 134 +/- 129 dpm
- MCC (in vitro): ≥ 200 µg/mL
- inhibition at 0.01 µM ([2]; 0.01 μM): 8%
- inhibition at 1 µM ([2]; 1 μM): 8%
- inhibition at 100 µM ([2]; 100 μM): 101%
- LD50 [3]: 105 mg/kg
- single dose toxicity (mice C57B1/6 [4]; IV application): 7.5 mg/kg
- lymphocytes (mice C57B1/6 [4]; [11]): significant decrease
- neutrophils (mice C57B1/6 [4]; [11]): significant increase
- behavior and appearance of treated mice (mice C57B1/6 [4]; observation period, IV single dose): no changes
- lower bracket dose (LBD) (mice C57B1/6 [4]; single intravenous dose): 67.5 mg/kg
- upper bracket dose (UBD) (mice C57B1/6 [4]; single intravenous dose): 127.5 mg/kg
- curative effects in comparison with corticosteroids (Psoriasis; 1% concentration): long-lasting curative effects
- remission of the treated area (Psoriasis; 1% concentration, some patients): still in remission of the treated area after three years
- appearance of relapses (Psoriasis; 10 months after treatment, versus local corticosteroid): significantly delayed
- results on psoriatic lesions (Psoriasis; cream, 2 times a day for 21 days, follow up 3, 6 and 9 months): good results
- time to curative effect versus local corticosteroid (Psoriasis; in most cases): sooner or in the same period of time it took local corticosteroid
- relapses (Psoriasis; some patients, 10 months following the treatment, larger surfaces, occlusions): no relapses were observed even after 10 months
- antiviral activity [5]: no activity
- Minimum inhibitory concentration (MIC) (Candida albicans): > 0.5%
- B-cell proliferation ([6]; 10 uM and 1 uM, added lipopolysaccharide): significant suppression
- activation at 0.001 µM ([6]; Mus musculus, B-cell, read-out: % Stimulation (+)/Suppression (-)): 13%
- activation at 0.01 µM ([6]; Mus musculus, B-cell, 0.01 uM, LPS, 0.5% DMSO, read-out: % Stimulation (+)/Suppression (-)): -15%
- activation at 0.1 µM ([6]; Mus musculus, B-cell, 0.1 uM, LPS, 0.5% DMSO, read-out: % Stimulation (+)/Suppression (-)): -9%
- activation at 1 µM ([6]; Mus musculus, B-cell, 1 uM, LPS, 0.5% DMSO, read-out: % Stimulation (+)/Suppression (-)): -25%
- activation at 10 µM ([6]; Mus musculus, B-cell, 10 uM, LPS, 0.5% DMSO, read-out: % Stimulation (+)/Suppression (-)): -54%
- lower bracket dose (LBD) (mice C57B1/6 [7]; [12]): 45 mg/kg
- single dose toxicity (mice C57B1/6 [7]; [12]): 5 mg/kg
- upper bracket dose (UBD) (mice C57B1/6 [7]; [12]): 125 mg/kg
- basophiles (mice C57B1/6 [7]; fourth day after application): significant increase
- eosinophiles (mice C57B1/6 [7]; fourth day after application): significant increase
- lymphocytes (mice C57B1/6 [7]; fourth day after application): significant decrease
- neutrophils (mice C57B1/6 [7]; fourth day after application): significant increase
- behavior and appearance of treated mice (mice C57B1/6 [7]; observation period): no changes
- T-cell proliferation ([8]; 10 uM, without Con A): inhibited
- in vitro T cell immunosuppression activity ([8]; 10 uM, without ConA): T cell immunosuppression activity
- activation at 0.001 µM ([8]; Mus musculus, T-cell, 0.001 uM, 0.5% DMSO, read-out: % Stimulation (+)/Suppression (-)): -2%
- activation at 0.01 µM ([8]; Mus musculus, T-cell, 0.01 uM, 0.5% DMSO, read-out: % Stimulation (+)/Suppression (-)): 0%
- activation at 0.1 µM ([8]; Mus musculus, T-cell, 0.1 uM, 0.5% DMSO, read-out: % Stimulation (+)/Suppression (-)): 1%
- activation at 1 µM ([8]; Mus musculus, T-cell, 1 uM, 0.5% DMSO, read-out: % Stimulation (+)/Suppression (-)): -3%
- activation at 10 µM ([8]; Mus musculus, T-cell, 10 uM, 0.5% DMSO, read-out: % Stimulation (+)/Suppression (-)): -24%
- Lymphocyts (blood count in mouse): 53.40 +/- 11.14
- lymphocytes (blood count in mouse): 56.50 +/- 12.02
- nRBC (blood count in mouse): 0
- change in lymphocytes (blood count in mouse; iv, 7.5 mg/kg): decreased
- change in neutrophils (blood count in mouse; iv, 7.5 mg/kg): significantly increased
- collagen induced platelet aggregation (rat platelet rich plasma): not affected
- defect of spiralization (CHO cells): not observed
- overall structural chromosome damages and number of cells with 2 to 4 aberrations (CHO cells): increased several fold
- antiviral activity [9]: no activity
- t-PA release induced by PMA ([10]; 0.1 mg/ml, PMA induced): slightly inhibited
- basal t-PA release ([10]; basal): no effect
